Source: patent US20190381061A1, “LOCAL ANESTHESIA PAIN-RELIEVING TIME-DELAY AGENT” (priority 2013, published 2019)

Experiments:
[1] = test system: patient; experiment: Local anesthesia for clinical surgical operations: composition combined with a local anesthetic and injected locally; assay type: in vivo, human
Procedure: The above components are injected into 4 ml of 0.375% bupivacaine, and a 0.9% saline solution is added so that the total volume became 8 ml, and then, the composition is subcutaneously injected into both eyebrow regions.
The above components were injected into 30 ml of 1% prilocain hydrochloride according to the ratio, and 0.9% […] was added so that the total volume became 60 ml, and then, the composition was subcutaneously, intramuscularly and subperiosteally injected into the operation site of a patient using a 3 cm needle, and as the result, it was concluded that onset time of anesthesia is shortened to 60 seconds from 5 minutes of the existing case wherein only lidocaine was injected, and the duration of anesthetic action is prolonged from the existing 2 hours to 40 days. […].
The above components were injected into 20 ml of 0.5% procaine, and a 0.9% saline solution was added so that the total volume became 40 ml, and then, the composition was sequentially injected subcutaneously, intramusculary and intraperitoneally along the appendectomy scar of the patient using a 3 cm needle, and as the result, it was concluded that onset time of anesthetic is 60 seconds, and the duration of pain relief continues for 40 days. […]. […]

[2] = test system: peripheral nerve medulla; settings: cited from earlier work

Structure (SMILES) | duration of anesthetic action / pain relief, existing ([1]; existing case, without the composition of the example) [h] | onset time of anesthesia, existing case ([1]; only the local anesthetic injected, without the composition) [min] | concentration at which it may directly injure peripheral nerve medulla to cause irreparable nerve injury [2] [%]
CCN(CC)CC(=O)Nc1c(C)cccc1C [lidocaine] | 2 | 5 | –
CN(C)c1ccc2nc3ccc(=[N+](C)C)cc-3sc2c1 [Methyleneblue] | – | – | > 0.03
